Results on one molecule are retold here after publication PMC10892120, “Design, Synthesis and Biological Assessment of N′-(2-Oxoindolin-3-ylidene)-6-methylimidazo[2,1-b]thiazole-5-carbohydrazides as Potential Anti-Proliferative Agents toward MCF-7 Breast Cancer” (Pharmaceuticals, 2024).

In this test the test system is MCF-7. Briefly: Apoptotic assay, Annexin V/PI analysis in MCF-7. The class given is cell-based. As to conditions: MCF-7, Annexin V/PI, % given only in Figure 5. On the procedure:
In comparison to the control cells, the apoptotic assay employing Annexin V/PI analysis for compound 6i generated a substantial amount of early and late apoptosis in MCF-7. Compound 6i induced early apoptosis in MCF-7 at rate of 22.05, compared with the control MCF-7 (0.43) (Table 6 and Figure 5).
These were performed using the approach described in the Supplementary Data, page 44 [46]. […]
thoroughly, and then centrifuge at 4°C to collect contents to the bottom of the tube. Chill on ice before using. Centrifuge again briefly at 4°C if needed. Preparation of a reaction cocktail is crucial in quantitative PCR applications to reduce pipetting errors and maximize assay precision and accuracy. Assemble the reaction cocktail with all required components except sample template (total RNA) and dispense equal aliquots into each reaction tube. Add target sample to each reaction as the final step. Addition of sample as 5–10 μl volumes will improve assay precision. Replicate samples should be assembled as a master mix with a single addition of sample template.
Cell cycle analysis and apoptosis
Transfer the previously prepared cells from 4 °C to the bench-top and equilibrate to room temperature. Gently re-suspend cells by inverting the tube or by gentleup and down pipetting.
There may be visible thin salt crystals in the tube but this will not affect the sedimentation of the cells in the next step. Pellet the cells at 500 x g for 5 minutes. Carefully aspirate the supernatant without disrupting the pellet. It is better to incompletely remove the supernatant than to accidently aspirate part of the pellet and lose cells. Wash the cells by gently resuspending in 1 mL 1X PBS.
Again, pellet the cells at 500 x g for 5 minutes and carefully remove the supernatant. Gently resuspend the cell pellet in 200 μL 1X Propidium Iodide + RNase Staining Solution. Then ensure that the cells are fully resuspended. Incubate at 37 °C in the dark for 20 – 30 minutes. Place tubes on ice (still in the dark) and prepare for flow cytometry analysis. Gently resuspend cells that settled during the incubation by pipetting up and down. If desired, pass cells through an appropriate filter (not provided) to remove cell aggregates. Run samples on flow cytometer: Set appropriate FSC vs. SSC gates to exclude debris and cell aggregates. Collect Propidium iodide fluorescence in FL2.
The Protein Data Bank (http://www.rcsb.org) was utilized to obtain the 3D structures of […]
was used to conduct docking studies on established analogues with the VEGFR-2 active site. This program was run with a searching grid that was stretched across ligand molecules, with box […]
parameters set to default. The highest scoring posit ion for every compound was chosen after docking it into the crystal structure. […]

For the molecule `CCCCN1C(=O)C(=NNC(=O)c2c(C)nc3sccn23)c2ccccc21` [Compound 6i, N′-(1-Butyl-2-oxoindolin-3-ylidene)-6-methylimidazo[2,1-b]thiazole-5-carbohydrazide], where the note is “control 0.11”, the “Apoptosis Late” value stood at 7.61%. Besides, where the note is “control 0.43”, the “Apoptosis Early” value was 22.05%. Under “control 1.37”, this molecule returned a Necrosis of 3.15%. For the setting “control 1.91”, the “Apoptosis Total” value was determined as 32.81%.
